{"source": "patent US20110281852A1", "about": "(priority 2010, published 2011)", "key": {"C/EBPα": {"tested_on": "C/EBPα", "assay": "Immunoblot, C/EBPα protein in epididymal fat of FD mice", "type": "in vivo, mouse", "conditions": "berberine treatment", "procedure": "(§1) RNA and protein purification and quantification from epididymal fat tissues: RNA and protein was isolated from 60 mg of epididymal fat tissues with Trizol (Invitrogen, Carlsbad, Calif., USA) following the protocol recommended by the manufacturers. RNA was dissolved in pure water and quantified at 260/280 nm, and sample integrity was checked by 1.5% agarose gel electrophoresis. Protein concentration was determined using the Micro BCA Protein Assay Kit (Fisher Scientific, Pittsburgh, Pa., USA) according to the manufacturer's instructions.\nImmunoblot Analysis: Protein expression of GATA-2, GATA-3, PPARγ and C/EBPα in the control of β-actin was assessed by Western Blot. Protein samples from the same group were homogenized as previously reported (Hu and Davies, Phytomedicine (2009) 16:864-873). Protein (25 μg) was separated by polyacrylamide gel electrophoresis using the BioRad Electrophoretic System (60 V for 1 h followed by 90 V for 5 h). The proteins were then transferred to nitrocellulose membranes at 35 V overnight. […]"}, "GATA-3": {"tested_on": "GATA-3", "assay": "Real-Time RT-PCR, GATA-3 mRNA in epididymal fat of FD mice", "type": "in vivo, mouse", "procedure": "as §1\nQuantitative Real-Time RT-PCR: Real-Time reverse transcriptase polymerase chain reaction (RT-PCR) analysis was used to measure mRNA expression of genes PPARγ, C/EBPα, GATA-2 and GATA-3 in the control of β-actin. Total RNA (0.8 μg) from each sample was used for a reverse transcription reaction using the TaqMan Reverse Transcription Reagents (Applied Biosystems, Foster City, Calif., USA) following the manufacturer's instructions. PCR was done using the SYBR green Master Mix (Applied Biosystems, Foster City, Calif., USA) following the manufacturer's instructions. The cycling conditions of amplification were as follows: an initial step of denaturation at 95° C. for 10 min, 40 cycles of denaturation at 95° C. for 30 s, annealing at 55° C. for 30 s, and elongation at 72° C. for 30 s. Real-Time PCR was performed using Mx3000P Real-Time Thermocyclers (Stratagene, La Jolla, Calif., USA). The relative mRNA levels of these genes were calculated by 2-delta delta CT method and normalized with control-treated groups."}, "[1]": {"assay": "Body weight gain, high-fat diet-induced obesity mice and normal diet mice", "type": "in vivo, mouse", "text": "Six mice per subgroup were obtained finally."}, "3T3-L1 cells [2]": {"tested_on": "3T3-L1 cells", "assay": "Oil-Red-O staining and quantification, berberine with amentoflavone in 3T3-L1 (Example 6)", "type": "cell-based, mouse", "conditions": "8 days", "procedure": "Oil-Red-O staining and quantification: Oil-Red-O Staining and its quantification were performed as previously reported. Briefly, medium was removed and cells were washed with PBS twice, fixed with 3.7% formalin at room temperature for 30 min, then rinsed with pure water, added 60% isopropanol and incubated for 5 minutes, then moved out isopropanol and stained cells with diluted Oil-Red-O solution (Oil-Red-O store solution (3 mg/ml in pure isopropanol): water=3:2) at room temperature for 10 min. Then the diluted Oil-Red-O solution was removed and cells were washed 3 times with pure water. After staining, the cells were washed twice with 70% ethanol to remove excess stain. Stained oil droplets in the cells were dissolved in isopropanol containing 4% Nonidet-P40 (Fisher Scientific, Pittsburgh, Pa., USA) shaking in 37° C. at speed 100 rpm for 1 hour, and OD values were measured at an absorbance of 490 nm and then normalized with control group."}, "3T3-L1 cells [3]": {"tested_on": "3T3-L1 cells", "assay": "Quantitative Oil Red O staining, 3T3-L1 adipocyte differentiation (Example 1)", "type": "cell-based, mouse", "conditions": "for reduction in fat droplets: 6 days post differentiation induction", "procedure": "Oil-Red-O Staining: Oil-Red-O Staining was performed as previously described (Liu et al. 2004). Images were obtained using an Olympus IX70 inverted microscope (Tokyo, Japan). Quantification Oil-Red-O Staining of cells was carried out as described (Furuyashiki et al., Biosci Biotechnol Biochem (2004) 68:[…]).\nStandard Oil Red O staining was then used to examine the extent of differentiation process at days 2, 4, 6, and 8 using microscopy. […] (FIG. 4)."}}, "data": [{"smiles": "COc1ccc2cc3[n+](cc2c1OC)CCc1cc2c(cc1-3)OCO2.[Cl-]", "note": "[berberine, Berberine (Chloride Form)]", "values": [{"measurement": "quantitative protein expression of CEBP-α", "setting": "C/EBPα", "value": "did not appear to be significantly changed"}, {"measurement": "GATA-3 mRNA expression up-regulated by", "setting": "GATA-3; 0.75 mg/kg/day", "value": 3.2, "unit": "fold"}, {"measurement": "GATA-3 mRNA expression up-regulated by", "setting": "GATA-3; 1.5 mg/kg/day", "value": 4.3, "unit": "fold"}, {"measurement": "GATA-3 mRNA expression up-regulated by", "setting": "GATA-3; 3 mg/kg/day", "value": 4.8, "unit": "fold"}, {"measurement": "body weight gain", "setting": "[1]; FD mice, 0.75 mg/kg/day i.p., 36 days (control 4.3±0.6)", "value": "1.5±0.7", "unit": "g/mouse"}, {"measurement": "body weight gain", "setting": "[1]; FD mice, 1.5 mg/kg/day i.p., 36 days", "value": "1.9±0.7", "unit": "g/mouse"}, {"measurement": "body weight gain", "setting": "[1]; FD mice, 3 mg/kg/day i.p., 36 days", "value": "1.4±0.5", "unit": "g/mouse"}, {"measurement": "body weight gain", "setting": "[1]; ND mice, 3 mg/kg/day i.p., 36 days (control 2.3±0.9)", "value": "2.5±0.7", "unit": "g/mouse"}, {"measurement": "reduction in lipid content vs no berberine treated group", "setting": "3T3-L1 cells [2]; 2 μM berberine, differentiation medium with 15 μM clozapine", "value": 26, "unit": "%"}, {"measurement": "reduction in lipid content vs no berberine treated group", "setting": "3T3-L1 cells [2]; 2 μM berberine, differentiation medium without clozapine", "value": 9.9, "unit": "%"}, {"measurement": "reduction in lipid content vs no berberine treated group", "setting": "3T3-L1 cells [2]; 4 μM berberine, differentiation medium with 15 μM clozapine", "value": 70.7, "unit": "%"}, {"measurement": "reduction in lipid content vs no berberine treated group", "setting": "3T3-L1 cells [2]; 4 μM berberine, differentiation medium without clozapine", "value": 59.6, "unit": "%"}, {"measurement": "reduction in lipid content vs no berberine treated group", "setting": "3T3-L1 cells [2]; 8 μM berberine, differentiation medium with 15 μM clozapine", "value": 88.1, "unit": "%"}, {"measurement": "reduction in lipid content vs no berberine treated group", "setting": "3T3-L1 cells [2]; 8 μM berberine, differentiation medium without clozapine", "value": 81.7, "unit": "%"}, {"measurement": "reduction in lipid content vs no berberine treated group", "setting": "3T3-L1 cells [2]; 16 μM berberine, differentiation medium without clozapine", "value": 81, "unit": "%"}, {"measurement": "reduction in fat droplets", "setting": "3T3-L1 cells [3]; 1 μM", "value": 30.6, "unit": "%"}, {"measurement": "reduction in fat droplets", "setting": "3T3-L1 cells [3]; 2 μM", "value": 35.8, "unit": "%"}, {"measurement": "reduction in fat droplets", "setting": "3T3-L1 cells [3]; 4 μM", "value": 40, "unit": "%"}, {"measurement": "reduction in fat droplets", "setting": "3T3-L1 cells [3]; 8 μM", "value": 48.6, "unit": "%"}, {"measurement": "inhibition at 1 µM", "setting": "3T3-L1 cells [3]; Mus musculus, 3T3-L1, 192 h, 1 μM, 8 days, fully differentiated cells, read-out: inhibition of fat amount", "value": 59.4, "unit": "%"}, {"measurement": "inhibition at 2 µM", "setting": "3T3-L1 cells [3]; Mus musculus, 3T3-L1, 192 h, 2 μM, 8 days, fully differentiated cells, read-out: inhibition of fat amount", "value": 58.4, "unit": "%"}, {"measurement": "inhibition at 4 µM", "setting": "3T3-L1 cells [3]; Mus musculus, 3T3-L1, 192 h, 4 μM, 8 days, fully differentiated cells, read-out: inhibition of fat amount", "value": 71.8, "unit": "%"}, {"measurement": "inhibition at 8 µM", "setting": "3T3-L1 cells [3]; Mus musculus, 3T3-L1, 192 h, 8 μM, 8 days, fully differentiated cells, read-out: inhibition of fat amount", "value": 72.6, "unit": "%"}]}]}
